Reference: patent US7179825B2, “Retinoic acid mimetic anilides” (Janssen Pharmaceutica N.V., priority 1997, dated 2007)

tested on: metabolism of retinoic acid in human breast cancer cells; assay: Inhibition of retinoic acid (RA) metabolism (Example C.1); assay type: cell-based; details: MCF-7 human breast cancer cells, 3H-RA as substrate; concentration needed to reduce the amount of metabolites to 50% of the control
From the text: The property to delay the metabolism of retinoic acid can be evidenced in various in vitro and in vivo experiments. A particular in vitro procedure is described in example C.1 and tests the inhibitory activity of the compounds of formula (I) on the metabolism of retinoic acid in human breast cancer cells. The compounds of the present invention were also effective in suppressing induced vaginal keratinization effects in ovariectomized rats as is described in example C.2.
Inhibition of Retinoic Acid (RA) Metabolism
MCF-7 human breast cancer cells were grown as stock cultures according to art-known protocols. One day before the experiment, RA is added to the stock cultures to stimulate RA-metabolism. At the start of the experiment, cell suspensions were incubated in a tissue culture medium containing ^3H-RA as the substrate. Different concentrations of the test compound (dissolved in 1% DMSO) were added to the incubation mixtures, and at the end of the incubation, the unmetabolized RA is separated from its polar metabolites. The fraction containing the polar ^3H-labelled metabolites was collected and counted in a scintillation counter. For each experiment, a control and a blank incubation were run in parallel. Table 22 list the IC50 value (defined as the concentration in M needed to reduce the amount of metabolites to 50% of the control).

SMILES	IC50
CC(C(c1ccc(NC(=O)Cc2ccc(O)c(Cl)c2)cc1)n1cncn1)N(C)C (mixture of isomers) [Compound 299]	0.772 nM
COc1ccc(CC(=O)Nc2ccc(C(C(C)N(C)CCc3ccccc3)n3ccnc3)cc2)cc1OC (mixture of isomers) [Compound 415]	2.64 nM
Cc1cncn1C(c1ccc(Cl)cc1)c1ccc(NC(=O)C=C(c2ccccc2)c2cccc(Cl)c2)cc1 (mixture of isomers) [Compound 693]	> 100 nM
CCC(CC)C(c1ccc(NC(=O)COc2ccccc2OC)cc1)n1cncn1 (racemic) [Compound 12]	0.0365 nM
CCC(CC)C(c1ccc(NC(=O)C(O)c2ccc(Cl)cc2)cc1)n1cncn1 (racemic) [Compound 17, (±)-A1-4-chloro-N-[4-[2-ethyl-1-(1H-1,2,4-triazol-1-yl)butyl]phenyl]-α-hydroxybenzeneacetamide]	0.999 nM
CCC(CC)C(c1ccc(NC(=O)Cc2ccc(OC)nc2)cc1)n1ccnc1 (racemic) [Compound 51]	0.895 nM
CCC(CC)C(c1ccc(NC(=O)Cc2ccc(OC)c(O)c2)cc1)n1ccnc1 (racemic) [Compound 108]	0.0234 nM
CCC(CC)C(c1ccc(NC(=O)Cc2cc(OC)cc(OC)c2)cc1)n1ccnc1 (racemic) [Compound 119]	0.94 nM
CCC(CC)C(c1ccc(NC(=O)Cc2cc(OC)ccc2OCc2ccccc2)cc1)n1ccnc1 (racemic) [Compound 120]	3.88 nM
CCC(CC)C(c1ccc(NC(=O)Cc2cc(C)ccc2O)cc1)n1ccnc1 (racemic) [Compound 124]	0.0397 nM

tested on: Ovariectomized rats; assay: Vaginal keratinization test on ovariectomized rats (Example C.2); assay type: in vivo; details: estradiol undecylate induced keratinization, per os once daily on days 1-3, active dose = 50% of rats show complete suppression
Method in brief: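 Value is the lowest oral dose (mg/kg) at which half of tested rats show complete suppression of estradiol undecylate-induced vaginal keratinization by histology. Ovariectomized rats received 100 μg/100 g estradiol undecylate s.c., then compound or PEG 200 vehicle p.o. daily for three days; sacrifice one day later.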

SMILES	LAD (lowest active dose)
COc1ccc(CC(=O)Nc2ccc(C(C(C)N(Cc3ccccc3)Cc3ccccc3)n3ccnc3)cc2)cc1OC (single isomer, unassigned) [Compound 419]	>5.00 mg/kg
COc1cc(CC(=O)Nc2ccc(C(C(C)N(C)C)n3ccnc3)cc2)cc(OC)c1OC (single isomer, unassigned) [Compound 428]	>2.50 mg/kg
COc1ccc(CCC(=O)Nc2ccc(C(C(C)N(C)C)n3ccnc3)cc2)cc1OC (single isomer, unassigned) [Compound 429]	>2.50 mg/kg
COc1ccc(CCCC(=O)Nc2ccc(C(C(C)N(C)C)n3ccnc3)cc2)cc1OC.O=C(O)C(=O)O (single isomer, unassigned) [Compound 431]	>2.50 mg/kg
COc1ccc(CC(=O)N(C)c2ccc(C(C(C)N(C)C)n3cncn3)cc2)cc1OC (single isomer, unassigned) [Compound 437]	>2.50 mg/kg
COc1ccc(CC(=O)N(C)c2ccc(C(C(C)N(C)C)n3cncn3)cc2)cc1OC (single isomer, unassigned) [Compound 438]	>2.50 mg/kg
COc1ccc(CC(=O)N(C)c2ccc(C(C(C)N(C)C)n3ccnc3)cc2)cc1OC (single isomer, unassigned) [Compound 439]	>2.50 mg/kg
CCCCCC(C)C(c1ccc(NC(=O)/C(C)=C/c2ccccc2)cc1)n1ccnc1 (single isomer, unassigned) [Compound 487]	>5.00 mg/kg
CCCCCC(CC)C(c1ccc(NC(=O)C(C)=Cc2ccccc2)cc1)n1ccnc1 (single isomer, unassigned) [Compound 494]	>2.50 mg/kg
CC(=O)Nc1ccc(C(C(C)N(C)C)n2ccnc2)cc1.O (single isomer, unassigned) [Compound 551]	>2.50 mg/kg
CC(=O)Nc1ccc(C(C(C)N(C)C)n2ccnc2)cc1 (single isomer, unassigned) [Compound 552]	>2.50 mg/kg
CCN(CC)C(C)C(c1ccc(NC(C)=O)cc1)n1ccnc1 (single isomer, unassigned) [Compound 554]	2.50 mg/kg
CCN(CC)C(C)C(c1ccc(NC(C)=O)cc1)n1ccnc1 (single isomer, unassigned) [Compound 555]	>2.50 mg/kg
CCC(C(c1ccc(NC(C)=O)cc1)n1ccnc1)N(C)C (single isomer, unassigned) [Compound 557]	>5.00 mg/kg
CC(=O)Nc1ccc(C(C(C)N(C)C)n2cncn2)cc1 (single isomer, unassigned) [Compound 627]	>2.50 mg/kg
CC(C(c1ccc(NC(=O)Cc2ccc(Cl)cc2)cc1)n1cncn1)N(C)C (single isomer, unassigned) [Compound 628]	>2.50 mg/kg
COc1ccc(CCC(=O)Nc2ccc(C(C(C)N(C)C)n3cncn3)cc2)cc1OC (single isomer, unassigned) [Compound 629]	>2.50 mg/kg
COc1cc(CC(=O)Nc2ccc(C(C(C)N(C)C)n3cncn3)cc2)cc(OC)c1OC (single isomer, unassigned) [Compound 630]	>2.50 mg/kg

SMILES	LAD (lowest active dose)
C/C(=C\c1ccccc1)C(=O)Nc1ccc(C(C(C)N(C)C)n2cncn2)cc1 (single isomer, unassigned) [Compound 632]	>2.50 mg/kg
CCN(CC)C(C)C(c1ccc(NC(C)=O)cc1)n1cncn1 (single isomer, unassigned) [Compound 647]	>5.00 mg/kg
CC(C(c1ccc(NC(=S)Nc2nc3ccccc3s2)cc1)n1ccnc1)N(C)C (single isomer, unassigned) [Compound 704]	>5.00 mg/kg
COc1ccc(NC(=O)Nc2ccc(C(C(C)N(C)C)n3cncn3)cc2)cc1OC (single isomer, unassigned) [Compound 717]	>2.50 mg/kg
COc1ccc(NC(=O)Nc2ccc(C(C(C)N(C)C)n3cncn3)cc2)cc1OC (single isomer, unassigned) [Compound 720]	>2.50 mg/kg
CC(C(c1ccc(NC(=O)Cc2ccc(Cl)cc2)cc1)n1cncn1)N(C)C (single isomer, unassigned) [Compound 784]	>5.00 mg/kg
CC(C(c1ccc(NC(=O)Cc2ccc(Cl)cc2)cc1)n1cncn1)N(C)C (single isomer, unassigned) [Compound 785]	5.00 mg/kg
CCC(CC)C(c1ccc(NC(=O)c2ccccc2)cc1)n1cncn1 (stereo not drawn) [Compound 3]	>2.50 mg/kg
CCC(CC)C(c1ccc(NC(=O)CN(C)C)cc1)n1ccnc1 (stereo not drawn) [Compound 55]	>2.50 mg/kg
CCOc1ccc(CCC(=O)Nc2ccc(C(C(C)N(C)C)n3ccnc3)cc2)cc1 (stereo not drawn) [Compound 348]	>2.50 mg/kg
COc1ccc(CC(=O)Nc2ccc(C(CN(C)C)n3ccnc3)cc2)cc1OC (stereo not drawn) [Compound 380]	>2.50 mg/kg
CCOC(=O)CC(c1ccc(NC(=O)Cc2ccc(OC)c(OC)c2)cc1)n1ccnc1 (stereo not drawn) [Compound 395]	>5.00 mg/kg
COc1ccc(CC(=O)Nc2ccc(C(CCO)n3ccnc3)cc2)cc1OC (stereo not drawn) [Compound 403]	>5.00 mg/kg
CCOC(=O)CC(c1ccc(NC(C)=O)cc1)n1ccnc1 (stereo not drawn) [Compound 560]	>5.00 mg/kg
CCOC(=O)C(C)C(c1ccc(NC(=O)Cc2ccc(Cl)cc2)cc1)n1cncn1 (stereo not drawn) [Compound 624]	>2.50 mg/kg
CCC(C)C(c1ccc(NC(=O)Cc2ccc(Cl)cc2)cc1)n1cncn1 (stereo not drawn) [Compound 626]	2.50 mg/kg
CCC(c1ccc(NC(C)=O)cc1)(C(C)C)n1ccnc1 (stereo not drawn) [Compound 754]	10.00 mg/kg
